The source of these data is patent US12508342B2, “Debridement composition” (priority 2020, dated 2025).

The nature of data set [1]: Simulated wound matrix disruption on 96-peg lid, test solutions (Example 1). Conditions: for % Difference in Efficacy (chelators) / % Difference in Efficacy (surfactants): 1% w/w solution, 37° C., 1 hour, absorbance at 595 nm, with respect to 1% w/w benzethonium chloride aqueous solution; for efficacy relative to benzalkonium chloride, cocoamidopropyl betaine and Poloxamer 188 / efficacy in disrupting the simulated test wound matrix relative to SLS: 1% w/w; for efficacy in disrupting the simulated test wound matrix relative to SLS: compared with SLS. Here is the method: The following examples are prepared and evaluated using a simulated wound matrix composition. A wound matrix is prepared to contain:
The pegs are dipped into the simulated wound matrix and immediately transferred to a calcium chloride bath to achieve cross-linking. Solutions of test materials are prepared at 1% w/w in a 96 well microtiter plate. Following crosslinking, the pegs are inserted into the wells and incubated at 37° C. for 1 hour. Efficacy is characterised by the change in colour of the test solutions resulting from disruption of the stained material and is quantified by reading the absorbance of each solution at 595 nm. Results are presented with respect to a 1% w/w benzethonium chloride aqueous solution.

The conditions of data set [2]: AKZO Nobel published values using modified Davies HLB group numbers; cited from earlier work.

For `O=C(O)CC(O)(CC(=O)O)C(=O)O` [Citric Acid], the “% Difference in Efficacy (chelators)” value in data set [1] was “+50%”.
The same measure, in the same setting: to `O=C([O-])C(=O)[O-].[K+].[K+]` [Potassium Oxalate] belongs “+1350%”.
For `O=P([O-])(O)O.[Na+]` [Sodium Di-hydrogen Phosphate], the “% Difference in Efficacy (chelators)” value in data set [1] was −70%.
`CCCCCCCCCCCCOS(=O)(=O)[O-].[Na+]` [Sodium Dodecyl Sulphate, reference compound]: the “% Difference in Efficacy (surfactants)” value in data set [1] is reported as −99%. Besides, the “HLB Value” in data set [2] is recorded as 33.0.
Regarding `CCCCCCCC/C=C\CCCCCCCC(=O)[O-].[Na+]` [Sodium Oleate], in data set [1], the “efficacy relative to benzalkonium chloride, cocoamidopropyl betaine and Poloxamer 188” value was “an order of magnitude greater”; the “% Difference in Efficacy (surfactants)” value is reported as “+996%”; the “efficacy in disrupting the simulated test wound matrix relative to SLS” value was “an order of magnitude greater”. For the same molecule, in data set [2], the “HLB Value” was 10.55.
In the case of `O=C([O-])CC(O)(CC(=O)[O-])C(=O)[O-].[Na+].[Na+].[Na+]` [Tris-odium Citrate], in data set [1], the “% Difference in Efficacy (chelators)” value was “+1750%”.
Turning to “Benzalkonium Chloride [reference compound]”, the “% Difference in Efficacy (surfactants)” value in data set [1] is listed as “+60%”.
Same read-out and setting: to Cocoamidopropyl betaine belongs “+120%”.
For the molecule Di-sodium Lauryl Sulfosuccinate, in data set [1], the “efficacy relative to benzalkonium chloride, cocoamidopropyl betaine and Poloxamer 188” value is recorded as “an order of magnitude greater”; the “% Difference in Efficacy (surfactants)” value is “+844%”; the “efficacy in disrupting the simulated test wound matrix relative to SLS” value was “an order of magnitude greater”.
For Poloxamer 188 [reference compound], the “% Difference in Efficacy (surfactants)” value in data set [1] was −90%. In data set [2], the “HLB Value” was 3.4.
As to Sodium Laureth-2 Sulphate, in data set [1], the “% Difference in Efficacy (surfactants)” value is listed as −30%. For the same molecule, the “HLB Value” in data set [2] is 15.3.
